Measurements published in ChEMBL document CHEMBL1201862, “PubChem BioAssay data set” (2004).
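Compound exposure: 48 hours, 5 concentrations, 96-well plates. Abbreviation: GI50, concentration required for 50% inhibition of growth.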 Calls of active or inactive are those of the source. Rule as the data show it: active = GI50 up to about 1.1 µM and inactive = higher.

Key:
Assay in all cases: NCI anticancer screen, dose series, 48 h
A549 = tested on: A549
SK-MEL-5 = tested on: SK-MEL-5
SW-620 = tested on: SW-620
M19-MEL = tested on: M19-MEL
K562 = tested on: K562
NCI-H460 = tested on: NCI-H460
HL-60 = tested on: HL-60
HT-29 = tested on: HT-29
UO-31 = tested on: UO-31
NCI-H226 = tested on: NCI-H226
Malme-3M = tested on: Malme-3M
SN12C = tested on: SN12C
HCC 2998 = tested on: HCC 2998
786-0 = tested on: 786-0
LOX IMVI = tested on: LOX IMVI
NCI-H23 = tested on: NCI-H23
EKVX = tested on: EKVX

Structure (SMILES)	GI50 (A549)	GI50 (SK-MEL-5)	GI50 (SW-620)	GI50 (M19-MEL)	GI50 (K562)	GI50 (NCI-H460)	GI50 (HL-60)	GI50 (HT-29)	GI50 (UO-31)	GI50 (NCI-H226)	GI50 (Malme-3M)	GI50 (SN12C)	GI50 (HCC 2998)	GI50 (786-0)	GI50 (LOX IMVI)	GI50 (NCI-H23)	GI50 (EKVX)
c1ccc(OCc2nnc3n2N=C(c2ccccc2)CS3)cc1	> 100 µM (inactive)	> 100 µM (inactive)	> 100 µM (inactive)	> 100 µM (inactive)	> 100 µM (inactive)	> 100 µM (inactive)	> 100 µM (inactive)	> 100 µM (inactive)	23 µM (inactive)	> 100 µM (inactive)	> 100 µM (inactive)	> 100 µM (inactive)	> 100 µM (inactive)	> 100 µM (inactive)	> 100 µM (inactive)	> 100 µM (inactive)	–
Nc1ncnc2c(C3OC(CO)C(O)C3O)scc12 (centres undefined)	0.00721 µM (active)	0.346 µM (active)	0.0192 µM (active)	0.369 µM (active)	0.00262 µM (active)	0.00615 µM (active)	< 0.001 µM (active)	0.00458 µM (active)	0.57 µM (active)	0.0386 µM (active)	2.54 µM (inactive)	0.373 µM (active)	0.00504 µM (active)	0.217 µM (active)	0.0566 µM (active)	0.152 µM (active)	1.04 µM (active)
Cc1c(C2Cc3ccccc3N2C(=O)/C=C\C(=O)O)c2ccccc2n1C (centres undefined)	33 µM (inactive)	18.2 µM (inactive)	20 µM (inactive)	19.7 µM (inactive)	36.4 µM (inactive)	> 100 µM (inactive)	18.1 µM (inactive)	35.3 µM (inactive)	20.4 µM (inactive)	20.2 µM (inactive)	15.9 µM (inactive)	19.5 µM (inactive)	21.4 µM (inactive)	18.4 µM (inactive)	16.9 µM (inactive)	25.9 µM (inactive)	30.2 µM (inactive)
CCOC(=O)c1nc2ccc([N+](=O)[O-])cc2c2c1CCO2	> 100 µM (inactive)	> 100 µM (inactive)	> 100 µM (inactive)	> 100 µM (inactive)	> 100 µM (inactive)	> 100 µM (inactive)	> 100 µM (inactive)	> 100 µM (inactive)	–	> 100 µM (inactive)	> 100 µM (inactive)	> 100 µM (inactive)	> 100 µM (inactive)	> 100 µM (inactive)	> 100 µM (inactive)	> 100 µM (inactive)	> 100 µM (inactive)
O=C(Nc1cc(Cl)ccc1Cl)C(=O)C(c1cnc2ccccc2n1)[N+](=O)[O-] (centres undefined)	> 100 µM (inactive)	> 100 µM (inactive)	> 100 µM (inactive)	> 100 µM (inactive)	> 100 µM (inactive)	> 100 µM (inactive)	> 100 µM (inactive)	> 100 µM (inactive)	> 100 µM (inactive)	> 100 µM (inactive)	> 100 µM (inactive)	> 100 µM (inactive)	> 100 µM (inactive)	> 100 µM (inactive)	> 100 µM (inactive)	> 100 µM (inactive)	> 100 µM (inactive)
CC1=CC(=O)N2[C@H](OC[C@@H]2C(C)C)O1	> 100 µM (inactive)	> 100 µM (inactive)	> 100 µM (inactive)	> 100 µM (inactive)	> 100 µM (inactive)	> 100 µM (inactive)	> 100 µM (inactive)	> 100 µM (inactive)	> 100 µM (inactive)	> 100 µM (inactive)	> 100 µM (inactive)	> 100 µM (inactive)	–	> 100 µM (inactive)	–	> 100 µM (inactive)	> 10 µM (inactive)
C/N=c1\ss/c(=N\C(=S)N(C)C)n1C1CCCCC1	> 31.6 µM (inactive)	> 31.6 µM (inactive)	> 31.6 µM (inactive)	> 31.6 µM (inactive)	> 31.6 µM (inactive)	> 31.6 µM (inactive)	> 100 µM (inactive)	> 31.6 µM (inactive)	> 31.6 µM (inactive)	> 31.6 µM (inactive)	> 31.6 µM (inactive)	> 31.6 µM (inactive)	> 31.6 µM (inactive)	> 10 µM (inactive)	> 31.6 µM (inactive)	> 31.6 µM (inactive)	> 31.6 µM (inactive)
Oc1cc(Cl)ncn1	> 100 µM (inactive)	> 100 µM (inactive)	> 100 µM (inactive)	> 100 µM (inactive)	> 100 µM (inactive)	> 100 µM (inactive)	> 100 µM (inactive)	> 100 µM (inactive)	> 100 µM (inactive)	> 100 µM (inactive)	> 100 µM (inactive)	> 100 µM (inactive)	> 100 µM (inactive)	> 100 µM (inactive)	> 100 µM (inactive)	> 100 µM (inactive)	> 100 µM (inactive)
Cc1c(C(=O)CC(=O)C(=O)NC2C3CC4CC(C3)CC2C4)[n+]([O-])c2ccccc2[n+]1[O-] (centres undefined)	> 100 µM (inactive)	> 100 µM (inactive)	> 100 µM (inactive)	90.2 µM (inactive)	> 100 µM (inactive)	> 100 µM (inactive)	> 100 µM (inactive)	> 100 µM (inactive)	> 100 µM (inactive)	> 100 µM (inactive)	> 100 µM (inactive)	> 100 µM (inactive)	> 100 µM (inactive)	> 100 µM (inactive)	> 100 µM (inactive)	> 100 µM (inactive)	> 100 µM (inactive)
CCOC(=O)c1cnc2sc3ccc4ccccc4c3n2c1=O	53.3 µM (inactive)	32.1 µM (inactive)	> 100 µM (inactive)	> 100 µM (inactive)	37.6 µM (inactive)	> 100 µM (inactive)	21.2 µM (inactive)	87.5 µM (inactive)	23.9 µM (inactive)	30.1 µM (inactive)	63.2 µM (inactive)	39.3 µM (inactive)	> 100 µM (inactive)	> 100 µM (inactive)	47.9 µM (inactive)	62.5 µM (inactive)	74 µM (inactive)
CC(C)CCS(=O)(=O)OCCCCOS(=O)(=O)CCC(C)C	> 100 µM (inactive)	–	> 100 µM (inactive)	> 100 µM (inactive)	> 100 µM (inactive)	> 100 µM (inactive)	> 100 µM (inactive)	> 100 µM (inactive)	> 100 µM (inactive)	> 100 µM (inactive)	> 100 µM (inactive)	> 100 µM (inactive)	> 100 µM (inactive)	> 100 µM (inactive)	> 100 µM (inactive)	> 100 µM (inactive)	> 100 µM (inactive)
COc1ccc(Oc2ccccc2N)cc1	38.1 µM (inactive)	13.2 µM (inactive)	59 µM (inactive)	50.2 µM (inactive)	29.5 µM (inactive)	30.6 µM (inactive)	21 µM (inactive)	39.9 µM (inactive)	26.5 µM (inactive)	41.9 µM (inactive)	> 100 µM (inactive)	44.8 µM (inactive)	20.8 µM (inactive)	–	81.1 µM (inactive)	43 µM (inactive)	93.8 µM (inactive)
CC1CN1c1c(C(=O)/C=C/c2ccc(F)cc2)c(-c2ccccc2)nn(C)c1=O (centres undefined)	18.3 µM (inactive)	16 µM (inactive)	17.9 µM (inactive)	14.6 µM (inactive)	> 10 µM (inactive)	17.1 µM (inactive)	13.4 µM (inactive)	16.9 µM (inactive)	12.9 µM (inactive)	11.9 µM (inactive)	16 µM (inactive)	15.4 µM (inactive)	15.2 µM (inactive)	15.4 µM (inactive)	13.7 µM (inactive)	14 µM (inactive)	19 µM (inactive)
CCC(=C(C#N)C#N)c1cc(OC)c(OC)c(OC)c1	> 100 µM (inactive)	> 100 µM (inactive)	> 100 µM (inactive)	> 100 µM (inactive)	> 100 µM (inactive)	> 100 µM (inactive)	22.1 µM (inactive)	> 100 µM (inactive)	> 100 µM (inactive)	> 100 µM (inactive)	> 100 µM (inactive)	> 100 µM (inactive)	> 100 µM (inactive)	–	> 100 µM (inactive)	> 100 µM (inactive)	> 100 µM (inactive)
c1ccc(C2=NOC3(c4ccccc4)SC4CCCCC4CN23)cc1 (centres undefined)	20.5 µM (inactive)	15.2 µM (inactive)	30.6 µM (inactive)	30.5 µM (inactive)	20.2 µM (inactive)	32.6 µM (inactive)	5.4 µM (inactive)	28.2 µM (inactive)	27.5 µM (inactive)	36.6 µM (inactive)	29.8 µM (inactive)	52.5 µM (inactive)	55.1 µM (inactive)	49.1 µM (inactive)	17 µM (inactive)	29.8 µM (inactive)	57.9 µM (inactive)
COc1ccc2c(c1)[n+]([O-])c(-c1ccc(C)cc1)c(N)[n+]2[O-]	55.3 µM (inactive)	35.8 µM (inactive)	38.4 µM (inactive)	51.1 µM (inactive)	67.1 µM (inactive)	38.3 µM (inactive)	43.9 µM (inactive)	52.5 µM (inactive)	55.1 µM (inactive)	> 100 µM (inactive)	76.2 µM (inactive)	> 100 µM (inactive)	–	70.8 µM (inactive)	–	20.9 µM (inactive)	67.8 µM (inactive)
N#CC1(C#N)C(c2ccc(C3C(C#N)(C#N)C3(C#N)C#N)cc2)C1(C#N)C#N	> 100 µM (inactive)	> 100 µM (inactive)	> 100 µM (inactive)	> 100 µM (inactive)	> 100 µM (inactive)	> 100 µM (inactive)	> 100 µM (inactive)	> 100 µM (inactive)	> 100 µM (inactive)	–	> 100 µM (inactive)	> 100 µM (inactive)	> 100 µM (inactive)	> 100 µM (inactive)	> 100 µM (inactive)	> 100 µM (inactive)	> 100 µM (inactive)
